{"source": "patent US8709764B2", "about": "“Enzymatic demethylation of flavonoids” (Universiteit Gent, priority 2005, dated 2014)", "key": {"human fecal cultures": {"tested_on": "human fecal cultures", "experiment": "Incubation of IX with human fecal cultures (E-L; 51 fecal samples) for 3 days", "format": "in vitro ADME", "procedure": "Fecal slurries of 20% (w/v) fresh fecal samples were prepared by homogenizing the feces with phosphate buffered saline (0.1 M, pH 7) containing 1 g/l sodiumthioglycolate as reducing agent. The particulate material was removed by centrifugation (1 min, 500×g). The supernatant is hereafter called “the culture”.\nBut not all cultures were able to perform this reaction. Therefore, the remaining cultures E-L (10% (v/v)) were incubated for 3 days in Brain Heart Infusion broth (with 0.5 g/l cystein-HCl) under anaerobic conditions with 25 mg/l IX (FIG. 4).\nTo further investigate these inter-individual differences, a total of 51 fecal samples were incubated for 3 days in Brain Heart Infusion broth (with 0.5 g/l cystein-HCl) under anaerobic conditions, containing 25 mg/l IX (FIG. 5). The results are presented as % 8-PN production relative to the incubated IX concentration and samples were ordered by increasing 8-PN production capacity."}, "[1]": {"experiment": "Incubation of IX and 8-PN with Eubacterium limosum for 13 days", "format": "in vitro ADME", "settings": "Eubacterium limosum, Eubacterium limosum ATCC 8486 culture; E. limosum, 25 mg/l substrate, 13 days anaerobic; average (stdev) molar percentage", "procedure": "Eubacterium limosum ATCC 8486 and Peptostreptococcus productus ATCC 27340 were obtained from the German Collection of Microorganisms and Cell Cultures (DSMZ, Braunschweig, Germany). E. limosum was incubated for 13 days in Brain Heart Infusion broth (with 0.5 g/l cystein-HCl) with 25 mg/l of IX and 8-PN under anaerobic conditions (Table 2). This strain was able to convert IX into 8-PN. […] This feature is clearly different from the metabolic pathway as observed in liver microsomes wherein 8-PN is extensively further metabolised [Nikolic et al. (2005) J. of Mass Spectrom. 40, 289-299; Nikolic et al. (2004) Drug Metabolism and Disposition 32, 272-279]."}, "E. limosum": {"tested_on": "E. limosum", "experiment": "Selection of 8-PN producing E. limosum by repeated incubations with IX", "format": "in vitro ADME, Eubacterium limosum", "settings": "6 parallel incubations, 25 mg/l IX, 8 days", "procedure": "Because of the capacity of E. limosum to transform IX into 8-PN, a selection procedure was performed to obtain a strain, capable to quantitatively produce 8-PN. The selection procedure consisted of 6 parallel incubations of E. limosum [cultures from single colonies] with 25 mg/l IX and incubation for 8 days. Next, the culture which produced the highest amount of 8-PN was selected and used as inoculum for the next round of 6 parallel incubations (Table 3). […] This means that, after only three rounds, a strain was selected which converted almost all IX (high mean) and was also stable (low standard deviation)."}, "[2]": {"tested_on": "intestinal microbial communities PF+ and PF−", "experiment": "Simulator of the Human Intestinal Microbial Ecosystem (SHIME) dosed with IX", "format": "in vitro ADME", "source_text": "The SHIME consists of a succession of five reactors that represent the different parts of the human gastrointestinal tract. The first two reactors (stomach [reactor 1] and small intestine [reactor 2]) are of the fill-and-draw principle to simulate different steps in food uptake and digestion, with peristaltic pumps adding a defined amount of SHIME feed (3 times/day) and pancreatic and bile liquid to the stomach and duodenum compartment and emptying the respective reactors after specified intervals. The last three compartments (resp. ascending [reactor 3], transverse [reactor 4] and descending colon [reactor 5]) are continuously stirred reactors with constant volume and pH control. Retention time and pH of the different vessels were chosen in order to resemble in vivo conditions in the different parts of the gastrointestinal tract. The passage of food in the small intestine was simulated in reactor 2 by the addition of 60 ml artificial pancreatic and bile liquid, pancreatin and NaHCO3. The temperature of the system was kept at 37° C. by a thermostat and the system was kept anaerobic by flushing it with N2 for 15 min every day. Inoculum was prepared from faecal matter as described in De Boever et al. (2000) J. Nutrition 130, 2599-2606. Reactor 3, 4, and 5 were filled with nutritional medium and pH was adjusted to the respective pH range. Finally, 50 ml inoculum was added to the last three reactors.\nFor the present experiment, two of the above described systems were combined as two completely separate reactors, which are driven by the same pumps (pumps with two pump heads, allowing to dose exactly the same amounts of liquids to both systems), have identical pH and temperature control and which receive the same liquid food. This way, all parameters are perfectly controlled and identical, except for the intestinal microbial communities in the 2 systems which can be introduced separately. In this case we introduced a community which was capable to activate methylated prenylflavonoids (PF+) and one which could not (PF−). After a two-week stabilization period in which normal SHIME feed was dosed, 25 mg/L IX was dosed to the SHIME feed for 4 weeks (day 15-44). In the last two weeks the selected Eubacterium limosum strain of example 2, was also administered to the first colon compartment, to simulate the application of the strain as a probiotic (day 30-44)."}}, "note": "Several values for one entry are separate records, joined by “and”; a condition that tells them apart may be missing. Equal entries are not always repeated."}
{"smiles": "COc1cc(O)c(CC=C(C)C)c2c1C(=O)C[C@@H](c1ccc(O)cc1)O2", "note": "[IX, 5-O-methyl-8-prenylnaringenin]", "values": [{"measurement": "Microbial O-demethylation of IX", "setting": "human fecal cultures; fecal cultures E-L, 25 mg/l IX, 3 days anaerobic", "result": "only detected in samples E, J and K"}, {"measurement": "Share of tested fecal samples in which activation of IX occurred", "setting": "human fecal cultures; fecal samples A-L", "result": "only a third of the tested samples"}, {"measurement": "recovery at 13 days, 25 mg/l", "setting": "[1]", "result": 51.4, "unit": "%"}, {"measurement": "Molar % IX to 8-PN conversion, Highest", "setting": "E. limosum; selection round I", "result": 46.5, "unit": "%"}, {"measurement": "Molar % IX to 8-PN conversion, Lowest", "setting": "E. limosum; selection round I", "result": "2% and 2.1%"}, {"measurement": "Molar % IX to 8-PN conversion, Mean (stdev)", "setting": "E. limosum; selection round I", "result": "22.5% and 22.5 (19.3) %"}, {"measurement": "Molar % IX to 8-PN conversion, Highest", "setting": "E. limosum; selection round II", "result": 79.4, "unit": "%"}, {"measurement": "Molar % IX to 8-PN conversion, Lowest", "setting": "E. limosum; selection round II", "result": 24.3, "unit": "%"}, {"measurement": "Molar % IX to 8-PN conversion, Mean (stdev)", "setting": "E. limosum; selection round II", "result": "57.9 (19.6) %"}, {"measurement": "Molar % IX to 8-PN conversion, Lowest", "setting": "E. limosum; selection round III", "result": "82% and 82.1%"}, {"measurement": "Molar % IX to 8-PN conversion, Mean (stdev)", "setting": "E. limosum; selection round III", "result": "90.5% and 90.5 (6.9) %"}, {"measurement": "Conversion of IX into 8-PN", "setting": "[2]; PF+ compartment, after supplementing the E. limosum strain (from day 30)", "result": "the activation potential increased"}, {"measurement": "Conversion of IX into 8-PN", "setting": "[2]; PF+ compartment, only IX administered (day 15-30)", "result": "activation of methoxylated prenylflavonoids was noted in the distal colon parts"}, {"measurement": "Conversion of IX into 8-PN", "setting": "[2]; PF− compartment, after supplementing the E. limosum strain (from day 30)", "result": "production of the estrogenically active 8-PN was detected in the distal colon part"}, {"measurement": "Conversion of IX into 8-PN", "setting": "[2]; PF− compartment, only IX administered (day 15-30)", "result": "no conversion occurred"}]}
